Measured values from PMC10726465, “Synthesis and Evaluation of Small Molecule Inhibitors of the Androgen Receptor N-Terminal Domain” (ACS Medicinal Chemistry Letters, 2023).
Values after ≈ are worked out from the molar mass of the structure shown.

How the values were obtained:
[1] = test system: prostate-specific antigen (PSA) expression; assay: Inhibition of hormone-dependent expression of PSA in VCaP cells (Western blot); format: cell-based; details: 1 nM DHT, 24 h
Protocol: In addition to this, we evaluated hormone-dependent expression of prostate-specific antigen (PSA) in VCaP cells (see the Supporting Information).
(§1) VCaP cells, obtained from the American Type Culture Collection, were maintained in Dulbecco’s Modified Eagles Medium (DMEM) supplemented with 10% foetal bovine serum. Cells were maintained at 37°C without antibiotics in a humidified atmosphere
(§2) Inhibition of hormone-dependent expression of prostate specific antigen (PSA):
(§3) VCaP prostate cells were treated with 1 nM DHT in the absence or presence of inhibitor. After 24 hours cells were harvested and PSA detected by Western blotting and normalised against β-actin.

[2] = Thermodynamic aqueous solubility; format: physicochemical
in vitro = in vitro ADME; details: human, Caco-2
Excerpt: (§4) DMPK and physicochemical data were generated by Cyprotex Ltd, Alderley Park, Macclesfield, UK and Pharmaron Inc, Ningbo, China.

Caco2 cell = assay: in vitro; format: in vitro ADME
Excerpt: as §4

[3] = Human liver microsome stability; format: in vitro ADME; details: human liver microsomes
Excerpt: PSA expression (%inhibition) 34%
Plots of activity against
values for each small molecule determined.
Macclesfield, UK and Pharmaron Inc, Ningbo, China.

Plasma protein binding = format: in vitro ADME; details: mouse
CYP 3A4 = CYP 3A4 (Homo sapiens, UniProt P08684); assay: CYP450 inhibition (3A4); format: in vitro ADME
Sequence of CYP 3A4 (P08684 whole entry): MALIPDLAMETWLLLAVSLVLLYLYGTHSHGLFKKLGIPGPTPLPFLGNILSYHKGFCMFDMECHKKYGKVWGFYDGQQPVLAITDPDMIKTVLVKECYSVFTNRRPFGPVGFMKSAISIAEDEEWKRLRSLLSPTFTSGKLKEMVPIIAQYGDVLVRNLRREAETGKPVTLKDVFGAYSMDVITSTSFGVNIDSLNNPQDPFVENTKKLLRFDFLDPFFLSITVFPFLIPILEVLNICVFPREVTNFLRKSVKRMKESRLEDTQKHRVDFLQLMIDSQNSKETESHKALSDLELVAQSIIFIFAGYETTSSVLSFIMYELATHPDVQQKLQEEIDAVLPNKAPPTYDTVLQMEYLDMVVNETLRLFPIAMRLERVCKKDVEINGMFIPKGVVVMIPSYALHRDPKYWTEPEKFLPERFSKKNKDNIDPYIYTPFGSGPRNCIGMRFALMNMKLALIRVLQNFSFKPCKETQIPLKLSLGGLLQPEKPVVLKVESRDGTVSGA

CYP 2D6 = CYP 2D6 (Homo sapiens, UniProt P10635); assay: CYP450 inhibition (2D6); format: in vitro ADME
Sequence of CYP 2D6 (P10635 whole entry): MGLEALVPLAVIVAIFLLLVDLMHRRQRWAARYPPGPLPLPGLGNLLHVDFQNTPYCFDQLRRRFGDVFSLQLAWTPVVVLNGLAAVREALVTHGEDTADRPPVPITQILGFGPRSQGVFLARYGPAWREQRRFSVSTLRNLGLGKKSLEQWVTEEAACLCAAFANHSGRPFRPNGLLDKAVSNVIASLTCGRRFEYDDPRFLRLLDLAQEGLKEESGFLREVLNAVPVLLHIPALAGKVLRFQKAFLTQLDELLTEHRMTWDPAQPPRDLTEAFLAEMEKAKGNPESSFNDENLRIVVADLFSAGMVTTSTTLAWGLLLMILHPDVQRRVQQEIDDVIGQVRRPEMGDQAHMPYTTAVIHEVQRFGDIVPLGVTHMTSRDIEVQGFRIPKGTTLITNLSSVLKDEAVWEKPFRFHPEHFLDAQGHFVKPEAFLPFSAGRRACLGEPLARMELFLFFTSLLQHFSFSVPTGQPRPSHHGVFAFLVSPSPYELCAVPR

[4] = In vivo pharmacokinetic profile in male CD-1 mice; details: mouse
Excerpt: Encouraged by the promising in vitro profile, compound 16 was advanced, and a pharmacokinetic (PK) profile was obtained in male CD-1 mice (Table 6).

hERG channel = hERG channel (Homo sapiens, UniProt Q12809); assay: hERG channel inhibition, Q-patch clamp assay
Sequence of hERG channel (Q12809 whole entry): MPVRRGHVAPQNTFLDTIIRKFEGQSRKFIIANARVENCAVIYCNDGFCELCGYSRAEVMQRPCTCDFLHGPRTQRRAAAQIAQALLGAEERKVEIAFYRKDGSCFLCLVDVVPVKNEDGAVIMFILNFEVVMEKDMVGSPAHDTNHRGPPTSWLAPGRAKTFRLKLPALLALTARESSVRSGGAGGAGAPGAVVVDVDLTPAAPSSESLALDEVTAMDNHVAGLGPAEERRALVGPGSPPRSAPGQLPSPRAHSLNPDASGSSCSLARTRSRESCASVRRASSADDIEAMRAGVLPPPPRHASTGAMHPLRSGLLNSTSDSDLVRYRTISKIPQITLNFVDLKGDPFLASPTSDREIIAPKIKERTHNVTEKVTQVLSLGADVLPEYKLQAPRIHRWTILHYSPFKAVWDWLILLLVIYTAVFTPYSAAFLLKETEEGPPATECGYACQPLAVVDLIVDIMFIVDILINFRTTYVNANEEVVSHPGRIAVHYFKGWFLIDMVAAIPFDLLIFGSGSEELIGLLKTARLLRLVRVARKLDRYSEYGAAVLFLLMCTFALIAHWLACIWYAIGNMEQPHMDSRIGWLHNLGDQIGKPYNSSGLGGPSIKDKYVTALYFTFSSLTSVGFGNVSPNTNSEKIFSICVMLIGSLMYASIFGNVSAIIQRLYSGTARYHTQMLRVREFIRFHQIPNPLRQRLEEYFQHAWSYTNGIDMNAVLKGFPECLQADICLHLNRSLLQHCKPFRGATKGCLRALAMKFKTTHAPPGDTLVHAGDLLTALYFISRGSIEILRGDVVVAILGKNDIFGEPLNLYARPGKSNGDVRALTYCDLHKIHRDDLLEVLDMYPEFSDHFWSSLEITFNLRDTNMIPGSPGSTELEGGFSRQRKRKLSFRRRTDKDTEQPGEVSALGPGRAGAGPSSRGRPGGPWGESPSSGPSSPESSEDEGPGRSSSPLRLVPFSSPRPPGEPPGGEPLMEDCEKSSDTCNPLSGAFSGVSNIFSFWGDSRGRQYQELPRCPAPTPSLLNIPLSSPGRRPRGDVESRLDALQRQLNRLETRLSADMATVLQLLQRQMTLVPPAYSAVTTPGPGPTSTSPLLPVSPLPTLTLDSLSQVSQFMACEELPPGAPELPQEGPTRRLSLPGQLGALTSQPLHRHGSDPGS

androgen receptor (AR) = biological target: T1, androgen receptor (AR) (Homo sapiens, UniProt P10275); details: for Lipophilic Ligand Efficiency (LLE): from VCaP GRE2-luciferase IC50 and cLogP; for IC50: read-out: VCaP GRE2-luciferase IC50, VCaP cells, 1 nM DHT, 24 h, 0–30 µM compound; for Ligand Efficiency (LE): from VCaP GRE2-luciferase IC50
T1 sequence (P10275 1-920): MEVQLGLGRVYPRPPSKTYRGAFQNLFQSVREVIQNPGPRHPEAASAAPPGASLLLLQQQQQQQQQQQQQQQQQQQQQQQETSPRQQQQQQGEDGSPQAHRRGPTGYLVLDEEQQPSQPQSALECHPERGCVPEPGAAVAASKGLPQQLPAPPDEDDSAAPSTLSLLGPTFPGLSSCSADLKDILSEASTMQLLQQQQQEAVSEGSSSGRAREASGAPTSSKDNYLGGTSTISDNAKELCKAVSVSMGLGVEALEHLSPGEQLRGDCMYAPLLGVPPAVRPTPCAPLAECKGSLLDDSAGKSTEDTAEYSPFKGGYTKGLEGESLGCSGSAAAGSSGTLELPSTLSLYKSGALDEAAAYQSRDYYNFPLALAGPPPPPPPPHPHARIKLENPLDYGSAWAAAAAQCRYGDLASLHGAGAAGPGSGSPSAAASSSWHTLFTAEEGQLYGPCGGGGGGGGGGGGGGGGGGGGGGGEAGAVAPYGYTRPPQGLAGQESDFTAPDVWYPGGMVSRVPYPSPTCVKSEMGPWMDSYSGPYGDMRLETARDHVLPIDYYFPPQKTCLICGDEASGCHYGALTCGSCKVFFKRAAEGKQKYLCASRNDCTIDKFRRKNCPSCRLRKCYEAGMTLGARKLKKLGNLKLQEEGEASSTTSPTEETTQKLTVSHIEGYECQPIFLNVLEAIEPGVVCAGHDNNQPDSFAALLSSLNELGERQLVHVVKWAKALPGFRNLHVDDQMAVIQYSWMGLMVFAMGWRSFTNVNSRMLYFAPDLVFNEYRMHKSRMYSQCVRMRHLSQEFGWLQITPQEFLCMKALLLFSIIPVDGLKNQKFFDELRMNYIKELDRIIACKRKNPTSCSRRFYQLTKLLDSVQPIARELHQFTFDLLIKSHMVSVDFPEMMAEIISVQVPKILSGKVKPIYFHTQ
Protocol: as §1
Transient transfection and Luciferase Activity Assay:
Cells at 70–80% confluence in 24 well plates, were transferred to DMEM
300ng/well of the firefly reporter plasmid, GRE2-TATA-luc using JetPEI (PolyPLUS Transfection) according to the manufacturers’ protocol.
replaced with fresh DMEM +5% CSS containing either DMSO (vehicle control) or 0– 30 µM small molecules together with 1nM DHT. Twenty four hours later, medium was aspirated, cells were washed with PBS and extracted with Passive Lysis Buffer
Cell debris was removed by centrifugation at 13,000 xg for 5min and supernatants collected. Luciferase activity was measured in triplicate, using an in-house luciferase assay buffer (13 mM MgSO4 7H2O, 30 mM
amount of total cellular protein.
as §2, §3
Luciferase activity in cells treated with small molecules was determined as a percentage of the untreated control, which was set at 100%. Plots of activity against small molecule concentration (log) were analysed in GraphPad PRISM 5 and IC50 values for each small molecule determined.

AR-v (ARNTD–DBD) = biological target: T2, AR-v (ARNTD–DBD) (Homo sapiens, UniProt P10275); assay: AR-v splice variant activity in PC3 cells transfected with ARNTD–DBD expression plasmid and GRE2-luciferase reporter; details: PC-3, read-out: inhibition of AR-v activity
T2 sequence (P10275 1-632 limits assumed): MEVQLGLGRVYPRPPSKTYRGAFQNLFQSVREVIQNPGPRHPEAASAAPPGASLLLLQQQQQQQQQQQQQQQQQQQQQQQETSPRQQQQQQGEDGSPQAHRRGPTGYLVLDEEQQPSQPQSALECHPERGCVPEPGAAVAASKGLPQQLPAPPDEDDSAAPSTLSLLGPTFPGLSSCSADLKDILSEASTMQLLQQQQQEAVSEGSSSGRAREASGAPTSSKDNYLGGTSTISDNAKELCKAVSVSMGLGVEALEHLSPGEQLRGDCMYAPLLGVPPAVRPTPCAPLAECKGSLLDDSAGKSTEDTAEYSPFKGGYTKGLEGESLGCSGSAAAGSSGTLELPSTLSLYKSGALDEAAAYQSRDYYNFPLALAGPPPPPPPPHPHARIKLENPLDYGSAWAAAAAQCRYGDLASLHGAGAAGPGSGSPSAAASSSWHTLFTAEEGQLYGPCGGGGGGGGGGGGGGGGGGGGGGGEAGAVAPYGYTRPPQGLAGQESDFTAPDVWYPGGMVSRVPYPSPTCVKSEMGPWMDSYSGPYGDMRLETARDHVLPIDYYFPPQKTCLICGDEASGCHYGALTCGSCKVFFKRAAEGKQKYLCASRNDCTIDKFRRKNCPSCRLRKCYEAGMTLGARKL
Protocol: To this end, AR-v splice variant activity was determined through transfection of PC3 cells with an ARNTD–DBD expression plasmid and a GRE2-luciferase reporter gene (Figure 3).[43]

CSc1ccc(C(N)=O)cc1-c1ccc2c(cnn2C)c1 [Compound 16]
PSA expression (% inhibition) ([1]; 10 μM): 34% | solubility [2]: 2.6 µM (≈ 0.773 µg/mL) | Papp A→B (in vitro; apical to basolateral, read-out: Caco2 permeability Papp A2B): 33.1 ×10⁻⁶ cm/s | Papp B→A (in vitro; basolateral to apical, read-out: Caco2 permeability Papp B2A): 39.4 ×10⁻⁶ cm/s | efflux ratio (in vitro; read-out: Caco2 efflux ratio): 1.2 | Caco2 permeability Papp A2B (Caco2 cell; apical to basolateral): 3.31 ×10⁻⁶ cm/s | Caco2 permeability Papp B2A (Caco2 cell; basolateral to apical): 3.94 ×10⁻⁶ cm/s | microsomal CLint ([3]; read-out: HLM CLint): 25.6 µL/min/mg | half-life ([3]; read-out: HLM t1/2): 54 min | fraction unbound (Plasma protein binding): 0.069 | CYP450 inhibition, 3A4 isoform (in words) (CYP 3A4): no inhibition | IC50 (CYP 3A4): > 25000 nM | CYP450 inhibition, 2D6 isoform (in words) (CYP 2D6): no inhibition | IC50 (CYP 2D6): > 25000 nM | AUC0–t ([4]; iv 1 mg/kg): 131 ng·h/mL | AUC0–∞ ([4]; iv 1 mg/kg): 132 ng·h/mL | CL ([4]; iv 1 mg/kg): 126 mL min^–1 kg^–1 | Cmax ([4]; iv 1 mg/kg): 432 ng/mL | Vss_obs ([4]; iv 1 mg/kg): 1.38 L/kg | t1/2 ([4]; iv 1 mg/kg): 17.4 min | AUC0–t ([4]; po 10 mg/kg): 173 ng·h/mL | AUC0–∞ ([4]; po 10 mg/kg): 208 ng·h/mL | Cmax ([4]; po 10 mg/kg): 195 ng/mL | F (oral bioavailability) ([4]; po 10 mg/kg): 16% | Tmax ([4]; po 10 mg/kg): 0.25 | t1/2 ([4]; po 10 mg/kg): 240 min | hERG channel inhibition (in words) (hERG channel; Q-patch clamp assay): no hERG channel inhibition | IC50 (hERG channel; read-out: hERG IC50): > 10000 nM | increase in potency over initial hit compound 7 (androgen receptor (AR); VCaP GRE2-luciferase IC50 ratio): 60 fold | Lipophilic Ligand Efficiency (LLE) (androgen receptor (AR)): 4.7 | IC50 (androgen receptor (AR)): 120 nM | inhibition at 10 µM (AR-v (ARNTD–DBD)): 35%

Cn1ncc2cc(-c3cc(C(N)=O)ccc3NCc3ccccc3)ccc21 [Compound 52]
Ligand Efficiency (LE) (androgen receptor (AR)): 0.46 | Lipophilic Ligand Efficiency (LLE) (androgen receptor (AR)): 6.2 | IC50 (androgen receptor (AR)): 940 nM

Cn1ncc2cc(-c3cc(C(N)=O)ccc3N3CCOCC3)ccc21 [Compound 53]
Ligand Efficiency (LE) (androgen receptor (AR)): 0.41 | Lipophilic Ligand Efficiency (LLE) (androgen receptor (AR)): 6.1 | IC50 (androgen receptor (AR)): > 30000 nM

Cn1ncc2cc(-c3cc(C(N)=O)ccc3NCCN3CCOCC3)ccc21 [Compound 54]
Ligand Efficiency (LE) (androgen receptor (AR)): 0.37 | Lipophilic Ligand Efficiency (LLE) (androgen receptor (AR)): 6.4 | IC50 (androgen receptor (AR)): > 30000 nM

Cn1ncc2cc(-c3cc(C(N)=O)ccc3NCCN3CCCCC3)ccc21 [Compound 55]
Ligand Efficiency (LE) (androgen receptor (AR)): 0.37 | Lipophilic Ligand Efficiency (LLE) (androgen receptor (AR)): 5.3 | IC50 (androgen receptor (AR)): > 30000 nM

Cn1ncc2cc(-c3cc(C(N)=O)ccc3NCCCN3CCOCC3)ccc21 [Compound 56]
Ligand Efficiency (LE) (androgen receptor (AR)): 0.43 | Lipophilic Ligand Efficiency (LLE) (androgen receptor (AR)): 7.5 | IC50 (androgen receptor (AR)): 800 nM

CN(C)CCNc1ccc(C(N)=O)cc1-c1ccc2c(cnn2C)c1 [Compound 57]
Ligand Efficiency (LE) (androgen receptor (AR)): 0.41 | Lipophilic Ligand Efficiency (LLE) (androgen receptor (AR)): 6.4 | IC50 (androgen receptor (AR)): > 30000 nM

CSc1ccc(C(=O)O)cc1-c1cncnc1 [Compound 58]
Ligand Efficiency (LE) (androgen receptor (AR)): 0.80 | Lipophilic Ligand Efficiency (LLE) (androgen receptor (AR)): 8.2 | IC50 (androgen receptor (AR)): 120 nM

CSc1ccc(C(=O)N2CCCCC2)cc1-c1cncnc1 [Compound 59]
Ligand Efficiency (LE) (androgen receptor (AR)): 0.62 | Lipophilic Ligand Efficiency (LLE) (androgen receptor (AR)): 6.8 | IC50 (androgen receptor (AR)): 130 nM

CSc1ccc(C(=O)N2CCOCC2)cc1-c1cncnc1 [Compound 60]
Ligand Efficiency (LE) (androgen receptor (AR)): 0.60 | IC50 (androgen receptor (AR)): 260 nM

CC(C)(c1ccc(OCC(O)CO)cc1)c1ccc(OCC(O)CCl)cc1 (stereo not drawn) [EPI-001, reference compound]
PSA expression (% inhibition) ([1]; 50 μM): 19%
